The results in this text go back to US20250074946A1, “USE OF SE-DR AFFINITY PEPTIDE IN PREPARING DRUG FOR TREATING RHEUMATIC DISEASE” (HEBEI FITNESS BIOTECHNOLOGY CO., LTD., priority 2021, published 2025).

Where a SMILES comes first, the peptide text is derived from it. Where no end group is shown, it is not given here.

The test system of one data set is CIA rats. The data set can be described thus: CIA rat model: inflammation score AUC and peripheral blood T-cell subtypes (Example 3). Particulars: 0.2 mmol; for Inflammation score and area under the time curve (AUC): female Lewis CIA rats, tail vein once every other day for 15 days; for Th1 (%) / Th2 (%) / Th17 (%) / Treg (%): peripheral blood, […] after end of administration, flow cytometry. It counts as in vivo. As to the method: Collagen-induced arthritis (CIA) model was established by intradermal injection of the emulsion formulated using type II bovine collagen (CII) together with incomplete Freund's adjuvant (IFA) into the tail head of a female Lewis rat. After the model establishment, the morphological changes of rats' four paws were examined every day. […] Except for the model group, the dosage of polypeptide was all set as 0.2 mmol. A control group was also set up, in which the drug was injected into the tail vein once every other day for […]. The area under the curve (AUC) of the inflammation score was used for the efficacy analysis from the day the rats were enrolled, once every other day, until the end of administration.

Data set [1] deals with CIA rats with latent tuberculosis infection. Particulars: for Observation on the daily condition of rats: during administration; for Tuberculosis recurrence rate / Inflammation score and area under the time curve (AUC) / Culture of MTB from lungs and spleens of rats at sacrifice: peptides 0.2 mmol, adalimumab 1 mg/kg; for Tuberculosis recurrence rate: 21 days; for Inflammation score and area under the time curve (AUC): tail i.v. once every other day for 21 days; for Culture of MTB from lungs and spleens of rats at sacrifice: sacrifice on day 22.

Data set [2] deals with CIA mice infected with chronic hepatitis B. The data set can be described thus: CIA mice infected with chronic hepatitis B (Example 8). It counts as in vivo, mouse. The settings on record: for ALT level / Hepatitis B activation rate (Ratio of ALT > 100 U/L): at sacrifice, day 28; for Observation on the daily condition of mice: during administration; for Inflammation score and area under the time curve (AUC): peptides 50 μmol, Abatacept 100 μg, tail i.v. once every other day for 27 days. As for the experimental part:
Establishment of chronic hepatitis B model in mice: DBA/1 mice were injected with Raav8-1. 3 HBV (1×10^12 vg/mL) via tail vein to establish HBV chronic hepatitis B model.
DBA/1 mice infected with chronic hepatitis B were used to establish CIA model with chronic hepatitis B infection. Methods: Two days after the mice were injected with Raav8-1.3 HBV (1×10^12 vg/mL) via tail vein, the emulsion of bovine C II and CFA (containing 100 μg collagen) was intradermally injected into the tail head of the mice for immunization. After 21 days, the mice were boosted once by intraperitoneal injection of the emulsion (containing 100 μg collagen) prepared by bovine C II and IFA. Thereafter, the morphological changes of the four paws of the mice were examined every day, and the mice were randomly assigned to the treatment group at inflammation score of 1. […] Another 10 mice with latent hepatitis B infection were not subjected to model establishment and set as the control group. PBS was administrated to both the model group and the control group. The mice in each group were given the corresponding drugs by tail intravenous injection at the volume of 10 ml/kg, once every other day, for 27 consecutive days. The mice were sacrificed on day 28 after administration. The inflammation scores of the four paws of the mice in each group were evaluated during the administration. The serological indicators for virus injection and liver function of the mice were detected on the day of booster immunization (22 days after tail vein injection) and at the time of sacrifice.

Another data set relates to PBMC. The data set can be described thus: PBMC stimulation test, IL-6 in supernatant by ELISA. It counts as cell-based, human. Particulars: PBMC 1×10^6 cell/ml, peptide 10 μg/ml, 5 days of culture. The text has this: The SE-DR molecule is directly related to the pathogenesis of RA. It can present RA-related autoantigens in vivo, such as type II collagen (CII), heat shock protein 60 (Hsp60), cartilage glycoprotein (HCgp-39) and so on, and further activate autoreactive T cells, leading to the occurrence of rheumatoid arthritis. An important strategy for the treatment of RA is to use competitive inhibition to block the activation of autoreactive T cells by autoantigen peptides. […] Based on the above principles, we have designed and synthesized a series of altered peptide ligands, and screened for their affinity to SE-DR and for the activation ability on the peripheral blood T cells in RA patients. The specific steps and results are shown in Example 1 and Example 2.
3 mL ficoll was added to a 15 mL centrifuge tube, and 4 mL blood sample was then applied on the surface of ficoll. The tube was centrifuged at 400 g at 18-20° C. for 30-40 min. The upper layer of plasma was aspirated with a Pasteur pipette, and the PBMC layer (approximately 2 mL) was aspirated, and added to a 14 mL centrifuge tube previously filled with at least 3 volumes (6 mL) of PBS. The mixture was gently resuspended. The tube was centrifuged at 60-100 g for 10 min at 18-20° C. After centrifugation, the supernatant was removed with a Pasteur pipette, and the resulting cell mass was resuspended in 6-8 mL PBS and centrifuged at 18-20° C. for 10 min at 60-100 g to remove the supernatant. The cells were resuspended in an appropriate amount of 1640 complete medium and diluted to 1×10^6 cell/ml after cell counting. The diluted cell suspension was added to a 96-well plate. The positive control, allosteric peptide, was added to 100 μl cell culture to a final concentration of 10 μg/ml. The mixture was replenished to 200 μL with 1640 complete medium. After 5 days of culture, the supernatant was aspirated, centrifuged at 3000 rpm for 5 minutes, and the level of IL-6 in the supernatant was detected by ELISA.
(In general: An ELISA detects its analyte on a solid surface through an enzyme-linked reagent.)

The test system of data set [3] is immune system of healthy monkeys. Description: Immune indicators of cynomolgus monkeys after one month of administration (Example 5). Particulars: once a day for 4 weeks, end of administration. It counts as in vivo, cynomolgus monkey. An excerpt: Cynomolgus monkeys were used to investigate the effects of the SE-DR affinity peptide on the immune indicators of cynomolgus monkeys after continuous administration for one month. […] At the end of administration, the immune indicators, including the serum anti-FNS007 antibodies, the immunoglobulins of different serotypes, the serum complement, the peripheral blood T lymphocyte and the serum cytokines, were observed.

Data set [4] concerns immune system of healthy rats. The data set can be described thus: Immune indicators of SD rats after one month of administration (Example 4). It counts as in vivo, rat. Particulars: once a day for 4 weeks, end of administration. As for the experimental part:
SD rats were used to investigate the effects of the SE-DR affinity peptides on the immune indicators of the rats after continuous administration for one month. […] At the end of administration, analysis was conducted on the serum anti-FNS007 antibodies, different types of serum immunoglobulins, the serum complement, the peripheral blood T lymphocyte and the serum cytokines.

With `CC[C@H](C)[C@H](N)C(=O)N[C@@H](Cc1c[nH]c2ccccc12)C(=O)N[C@@H](Cc1ccc(O)cc1)C(=O)N[C@H](C(=O)N[C@@H](CO)C(=O)N[C@@H](CS)C(=O)N[C@@H](Cc1ccccc1)C(=O)NCC(=O)N[C@@H](CS)C(=O)N[C@@H](CCC(=O)O)C(=O)N[C@H](C(=O)N[C@@H](Cc1c[nH]cn1)C(=O)N[C@@H](C)C(=O)N[C@@H](CCSC)C(=O)N[C@@H](CC(C)C)C(=O)O)[C@@H](C)O)[C@@H](C)CC` [APL9] (H-IWYISCFGCETHAML-OH; N-terminus and C-terminus assumed), in the data set on CIA rats, the “Inflammation score and area under the time curve (AUC)” value (“Inflammation score and area” below) stood at 57.39 ± 39.33; the “Th1 (%)” value was found to be 0.20 ± 0.05 %; the “Th2 (%)” value came out at 4.27 ± 0.53%; the “Th17 (%)” value came to 0.95 ± 0.12 %. In the data set on CIA rats, the “Treg (%)” value came to 5.35 ± 0.84 %. Moreover, in data set [1], the “Observation on the daily condition of rats” value is given as “No abnormality”; the Tuberculosis recurrence rate was found to be 0%; the “Inflammation score and area” value is 54.49 ± 33.12; the “Culture of MTB from lungs and spleens of rats at sacrifice” value is “Negative”. For the same molecule, in data set [2], the ALT level is 47.55 ± 18.78 U/L; the “Hepatitis B activation rate (Ratio of ALT > 100 U/L)” value amounted to 0%; the “Observation on the daily condition of mice” value is “No abnormality”; the “Inflammation score and area” value is on record as 97.63 ± 50.13. Also, the “IL-6 levels in the supernatant” value with PBMC is 2.8 ng/mL. In data set [3], this molecule gave a CD3% of 66.91 ± 11.93%, a CD4% of 28.67 ± 14.78%, a CD8% of 28.67 ± 14.78% and an IFN-γ of 5.01 ± 0.69 pg/mL. For the same molecule, in data set [3], the IL-2 is on record as 4.60 ± 0.55 pg/mL, the IL-4 worked out at 2.24 ± 0.12 pg/mL and the TNF-α is on record as 2.38 ± 0.24 pg/mL. In data set [4], this molecule returned a CD3% of 36.08 ± 12.9%, a CD4% of 20.45 ± 8.45%, a CD8% of 17.10 ± 8.82% and an IFN-γ of 2.35 ± 0.27 pg/mL. In addition, in data set [4], the IL-2 was 3.03 ± 1.05 pg/mL, the IL-4 was determined as 1.95 ± 0.95 pg/mL and the TNF-α turned out to be 4.79 ± 1.08 pg/mL.

Take `CC(C)C[C@H](NC(=O)[C@H](CCCNC(=N)N)NC(=O)[C@@H](NC(=O)[C@H](C)NC(=O)[C@@H](N)CO)C(C)C)C(=O)N[C@@H](CCCNC(N)=O)C(=O)N[C@@H](CCCNC(=N)N)C(=O)N[C@@H](CO)C(=O)N[C@H](C(=O)N1CCC[C@H]1C(=O)NCC(=O)N[C@H](C(=O)N[C@@H](CCCNC(=N)N)C(=O)O)C(C)C)C(C)C` [APL26, SAVRLCitRSVPGVR]: the “IL-6 levels in the supernatant” value with PBMC came out at 7 ng/mL.

Turning to `CC(C)C[C@H](NC(=O)[C@H](CCCNC(N)=O)NC(=O)[C@@H](NC(=O)[C@H](C)NC(=O)[C@H](CO)NC(=O)[C@H](CO)NC(=O)[C@H](CCCNC(N)=O)NC(=O)[C@@H](NC(=O)[C@H](C)NC(=O)[C@H](Cc1ccc(O)cc1)NC(=O)[C@@H](NC(=O)CN)C(C)C)[C@@H](C)O)C(C)C)C(=O)N[C@@H](CCCNC(N)=O)C(=O)O` [APL34, GVYATCitSSAACitLCit], the “IL-6 levels in the supernatant” value in the data set with PBMC turned out to be 5.2 ng/mL.

Take `CC(C)C[C@H](NC(=O)[C@H](CCCCN)NC(=O)[C@H](CC(N)=O)NC(=O)[C@H](C)NC(=O)[C@H](CCCNC(N)=O)NC(=O)[C@H](CC(N)=O)NC(=O)[C@@H](NC(=O)[C@H](Cc1ccccc1)NC(=O)[C@H](CC(=O)O)NC(=O)[C@@H](N)CCC(N)=O)[C@@H](C)O)C(=O)N[C@@H](CCCCN)C(=O)N[C@@H](CC(N)=O)C(=O)N[C@@H](CO)C(=O)O` [APL35, QDFTNCitANKLKNS]: the “IL-6 levels in the supernatant” value in the data set with PBMC is 20.8 ng/mL.

Consider `CC(C)C[C@H](NC(=O)[C@H](CC(C)C)NC(=O)[C@@H](NC(=O)[C@@H](N)C(C)C)C(C)C)C(=O)N[C@H](C(=O)N[C@@H](C)C(=O)N[C@H](C(=O)N[C@@H](CCC(=O)O)C(=O)NCC(=O)N[C@@H](CCCNC(N)=O)C(=O)N[C@H](C(=O)N[C@@H](CCCNC(=N)N)C(=O)N[C@H](C(=O)N[C@@H](C)C(=O)N[C@@H](CO)C(=O)N[C@@H](C)C(=O)N[C@@H](Cc1ccc(O)cc1)C(=O)N[C@@H](CCC(N)=O)C(=O)N[C@@H](CC(=O)O)C(=O)N[C@@H](CCCCN)C(=O)O)C(C)C)C(C)C)[C@@H](C)O)C(C)C` [APL36], for which the “IL-6 levels in the supernatant” value with PBMC is 6.8 ng/mL.

MGPKGRTVIIEQSLGSPKVTK [APL21]: in the data set on CIA rats, the “Inflammation score and area” value was 59.44 ± 38.29; the “Th1 (%)” value is listed as 0.19 ± 0.08 %; the “Th2 (%)” value turned out to be 4.23 ± 0.47%; the “Th17 (%)” value was determined as 0.98 ± 0.10%. For the same molecule, the “Treg (%)” value with CIA rats is reported as 5.14 ± 0.90 %. In addition, in data set [1], the “Observation on the daily condition of rats” value is listed as “No abnormality”; the Tuberculosis recurrence rate was found to be 0%; the “Inflammation score and area” value was 53.06 ± 37.25; the “Culture of MTB from lungs and spleens of rats at sacrifice” value is “Negative”. Also, in data set [2], the ALT level worked out at 48.29 ± 21.24 U/L; the “Hepatitis B activation rate (Ratio of ALT > 100 U/L)” value was 0%; the “Observation on the daily condition of mice” value was “No abnormality”; the “Inflammation score and area” value is recorded as 95.71 ± 51.88. Also, in the data set with PBMC, the “IL-6 levels in the supernatant” value came to 4.2 ng/mL. In addition, in data set [3], the CD3% was found to be 66.16 ± 4.34%, the CD4% worked out at 23.43 ± 8.46%, the CD8% stood at 23.43 ± 8.46% and the IFN-γ worked out at 5.03 ± 0.22 pg/mL. For the same molecule, in data set [3], the IL-2 was 4.18 ± 0.41 pg/mL, the IL-4 amounted to 1.90 ± 0.15 pg/mL and the TNF-α was 2.16 ± 0.14 pg/mL. In data set [4], this molecule had a CD3% of 38.16 ± 8.98%, a CD4% of 18.72 ± 5.85%, a CD8% of 19.06 ± 5.4% and an IFN-γ of 2.64 ± 0.37 pg/mL. In addition, in data set [4], the IL-2 came out at 3.36 ± 1.45 pg/mL, the IL-4 is reported as 2.32 ± 1.37 pg/mL and the TNF-α worked out at 5.25 ± 1.28 pg/mL.

Turning to RSFTLAASETGVG [APL16], the “IL-6 levels in the supernatant” value in the data set on PBMC is 6.8 ng/mL.

Turning to RSFTLASSATGVG [APL17], the “IL-6 levels in the supernatant” value with PBMC worked out at 5.4 ng/mL.

For the molecule YAKQATLKLA [APL6], the “IL-6 levels in the supernatant” value in the data set with PBMC stood at 6.5 ng/mL.

In the case of YVAQNTLKLA [APL5], in the data set on PBMC, the “IL-6 levels in the supernatant” value stood at 8.7 ng/mL.
